System: primary CLL cells from patient-derived blood (CD5+CD19+ tumor cells)
Assay: Compound 1 in combination with obinutuzumab in B-cell CLL patient cells (ex vivo co-culture, flow cytometry, Caspase3)
Assay type: cell-based, human
Settings: 144 h
Description: Obinutuzumab (GA101) is a humanized, glycoengineered type 2 antibody targeted against CD20. […] The effect of treatment with Compound 1 in combination with obinutuzumab on the proliferation and survival of CLL B cells was assessed utilizing an ex vivo model where primary CLL cells from patient-derived blood were stimulated to proliferate with 10% fetal bovine serum (FBS), 5 ng/mL recombinant human interleukine-4 (rh IL-4), 10 ng/mL recombinant human interleukine-10 (rh IL-10) and co-cultured with fibroblast expressing surface CD154 (CD40L) in a 96 well plate format.
Peripheral blood mononuclear cells (PBMCs) from CLL patients (Table 7) containing 52%-86% of CD5^+CD19^+ tumor cells were cultured at a density of 0.06-0.1×10^6 cells/well on a monolayer of CD154-expressing fibroblasts at a density of 0.09×10^6 cells/well in 96-well plates in RPMI 1640 medium supplemented with 10% FBS, 5 ng/mL rh IL-4 and 10 ng/mL rh IL-10. The cells were treated with vehicle control (0.1% DMSO) or increasing concentrations of Compound 1 ranging from 0.0001 to 1 μM and GA101 at concentrations ranging from 8 ng/mL to 5 ug/mL across all the different concentrations of Compound 1. After 144 h of treatment with both the agents, flow cytometric analysis was used to determine the number of tumor cells that were viable or apoptotic.
The tumor cell count was assessed by staining the patient PBMCs in each condition with tumor cell surface markers CD5 & CD19 along with Live/Dead fixable dye to exclude the dead cells and followed by intracellular staining for Caspase3 antibody to identify the apoptotic cells and was measured by flow cytometry (Attune NxT, Thermo Fisher). The live tumor cell count for each condition was calculated by normalizing to the precision count beads added to each sample.
The live tumor cell count was then normalized to the DMSO control (considered as 100% viable) to calculate the percentage of viable cells remaining after treatment. The normalized percentage of tumor cells was then represented as a heat map using Graph Pad Prism 8.0.0 to indicate the degree of tumor toxicity for each of the combinations (FIG. 1). Based on the data shown in FIG. 1, synergy/additivity calculations were performed using the HSA and Bliss Independence Model.
For apoptosis analysis, the percentage of apoptosis combining both “early” (Caspase 3 positive and Live-Dead fixable dye negative) and “late” apoptosis (Caspase 3 and Live-Dead fixable dye positive) cell gates subtracting the baseline DMSO value was graphed using GraphPad Prism 8.0.0.0. The Ymax (maximal percentage of apoptosis achieved) values from apoptosis curves were calculated by performing a nonlinear regression curve fitting using log(agonist) vs. normalized response—Variable slope analysis and identifying the maximum value on GraphPad Prism 8.0.0 (Table 8).

Obinutuzumab: humanized, glycoengineered type 2 antibody targeted against CD20
induction of apoptosis (in words) (CLL patient cells Pt 11-14, Table 8): induced apoptosis alone | Ymax of Pt 11 (%) (Pt 11, single agent (Cpd1 DRC with DMSO, or obinutuzumab alone), apoptosis (Caspase 3), DMSO baseline subtracted): 27.98% | Ymax of Pt 12 (%) (Pt 12, single agent (Cpd1 DRC with DMSO, or obinutuzumab alone), apoptosis (Caspase 3), DMSO baseline subtracted): 24.91% | Ymax of Pt 13 (%) (Pt 13, single agent (Cpd1 DRC with DMSO, or obinutuzumab alone), apoptosis (Caspase 3), DMSO baseline subtracted): 35.87% | Ymax of Pt 14 (%) (Pt 14, single agent (Cpd1 DRC with DMSO, or obinutuzumab alone), apoptosis (Caspase 3), DMSO baseline subtracted): 25.82%

From patent US11628172B2, “Methods of treating chronic lymphocytic leukemia using 2-(2,6-dioxopiperidin-3-yl)-4-((2-fluoro-4-((3-morpholinoazetidin-1-yl)methyl)benzyl)amino)isoindoline-1,3-dione” (Celgene Corporation, priority 2019, dated 2023)
